Data on three compounds can be found in patent US20100029665A1, “Methods and Compositions for Treating Migraine Pain” (priority 2004, published 2010).

Molecules are shown by their SMILES.

A short description of series [1]: Release profile (cumulative fraction released) of a memantine and dihydroergotamine combination, USP II Paddle system, water. Format: physicochemical. From the text:
The cumulative fraction is the amount of drug substance released from the formulation matrix to the serum or gut environment (e.g., U.S. Pat. No. 4,839,177) or as measured with a USP II Paddle system using water as the dissolution medium.

For series [2] the following is noted: head of release table, Example 3; cited from earlier work.
The conditions of series [3]: humans; cited from earlier work.

For `CN1C[C@H](C(=O)N[C@]2(C)O[C@@]3(O)[C@@H]4CCCN4C(=O)[C@H](Cc4ccccc4)N3C2=O)C[C@@H]2c3cccc4[nH]cc(c34)C[C@H]21` [DIHYDROERGOTAMINE, dihydroergotamine], the cum. fraction in series [1] (Time 1) amounted to 0.15; in series [1] (Time 2), 0.30; in series [1] (Time 4) it was 0.45; in series [1] (Time 8) it was 0.60; in series [1] (Time 12), 0.75; in series [1] (Time 16) it was 0.90. Further, the cum. fraction in series [1] (Time 20) stood at 0.98; in series [1] (Time 24), 0.99. The T½ result in series [2] was “T½ = 15 hrs”.

For the compound `CC12CC3CC(C)(C1)CC(N)(C3)C2` [Memantine, 1-amino-3,5-dimethyladamantane], the cum. fraction is on record as 0.15 in series [1] (Time 1); 0.30 in series [1] (Time 2); 0.45 in series [1] (Time 4); 0.60 in series [1] (Time 8); 0.75 in series [1] (Time 12); 0.90 in series [1] (Time 16). Moreover, the results for the cum. fraction in series [1] (Time 20) and in series [1] (Time 24) were 0.98 and 0.99, respectively.

With `CC(N)C12CC3CC(CC(C3)C1)C2` (stereo not drawn) [Rimantadine, 1-(1-aminoethyl)adamantane], the “Dose Dependent Tox” value in series [3] is “Insomnia”.
